Data set [1] is described as follows: xn = mol fraction of the nth substance listed. To be noted: 283.15 K; 101 kPa; Liquid; x2 = 0.
The conditions of data set [2]: 101 kPa, Liquid.

Molecules are shown by their SMILES. ± gives the expanded uncertainty stated by the source.

With `O` [water] + CCOCCCN, the mass density in data set [1] stood at 999.699 ± 0.3 kg/m3.

As to `CCOCCCN` [3-ethoxy-1-propanamine], the mass density in data set [2] (283.15 K) stood at 865.36 ± 0.82 kg/m3; in data set [2] (288.15 K), 860.63 ± 0.83 kg/m3; in data set [2] (293.15 K) it was 855.715 ± 0.84 kg/m3; in data set [2] (298.15 K), 851.018 ± 0.86 kg/m3; in data set [2] (303.15 K), 846.075 ± 0.87 kg/m3.
